Key:
Assay in all cases: relative viability (nuclei count vs DMSO), 5 days (fraction); higher = more cells survive
[1] = compound: CC1CC(=O)N(C2=CN=C(N=C2N1C3CCCC3)NC4=C(C=C(C=C4)C(=O)NC5CCN(CC5)C)OC)C [NPK76-II-72-1] + CC(=O)c1c(C)c2cnc(Nc3ccc(N4CCNCC4)cn3)nc2n(C2CCCC2)c1=O [Palbociclib] (partner 0.5 µM)
In short: (§1)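 Cells from lung cancer lines were seeded into 1536-well plates and, one day later, dosed by pin tool. Treatments were either a single drug or a fixed dose of an anchor drug with five library-drug doses (not always all listed) in √10 steps. After 5 days, nuclei were stained in a one-step fixation (final 0.05% Triton X-100, 1% formaldehyde, 1 ug/ml Hoechst) and counted on 4× images, and relative viability is the treated-to-vehicle nuclei ratio, as the median of duplicate plates.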

[2] = compound: CC[C@@H]1C(=O)N(C)c2cnc(Nc3ccc(C(=O)NC4CCN(C)CC4)cc3OC)nc2N1C1CCCC1 [BI-2536] + Cc1nc(NC(=O)N2CCC[C@H]2C(N)=O)sc1-c1ccnc(C(C)(C)C(F)(F)F)c1 [Alpelisib] (partner 2 µM)
In short: as §1

[3] = compound: CC1CC(=O)N(C2=CN=C(N=C2N1C3CCCC3)NC4=C(C=C(C=C4)C(=O)NC5CCN(CC5)C)OC)C [NPK76-II-72-1] + Cc1nc(Nc2ncc(C(=O)Nc3c(C)cccc3Cl)s2)cc(N2CCN(CCO)CC2)n1 [Dasatinib] (partner 0.075 µM)
In short: as §1

[4] = compound: CC1CC(=O)N(C2=CN=C(N=C2N1C3CCCC3)NC4=C(C=C(C=C4)C(=O)NC5CCN(CC5)C)OC)C [NPK76-II-72-1] + Nc1ncn([C@H]2C[C@H](O)[C@@H](CO)O2)c(=O)n1 [Decitabine] (partner 2 µM)
In short: as §1

## UMC-11
[1]; first compound 0.01 µM
  relative viability: 0.301
[1]; first compound 0.03162 µM
  relative viability: 0.326
[1]; first compound 0.1 µM
  relative viability: 0.265
[1]; first compound 0.3162 µM
  relative viability: 0.355
[1]; first compound 1 µM
  relative viability: 0.355
[2]; first compound 0.01 µM
  relative viability: 0.978
[2]; first compound 0.03162 µM
  relative viability: 0.733
[2]; first compound 0.1 µM
  relative viability: 0.312
[2]; first compound 0.3162 µM
  relative viability: 0.152
[2]; first compound 1 µM
  relative viability: 0.126
[3]; first compound 0.01 µM
  relative viability: 0.45
[3]; first compound 0.03162 µM
  relative viability: 0.509
[3]; first compound 0.1 µM
  relative viability: 0.441
[3]; first compound 1 µM
  relative viability: 0.447
[4]; first compound 0.01 µM
  relative viability: 0.617
[4]; first compound 0.03162 µM
  relative viability: 0.57
[4]; first compound 0.1 µM
  relative viability: 0.683
[4]; first compound 0.3162 µM
  relative viability: 0.505
[4]; first compound 1 µM
  relative viability: 0.736

— the supplement of paper PMC10307832
